Measured values taken from paper PMC4774911, “Biochemical Screening of Five Protein Kinases from Plasmodium falciparum against 14,000 Cell-Active Compounds” (PLoS ONE, 2016).
Where “and” joins values, the source holds several entries; their conditions need not be identical. Equal entries are not always repeated.

Tests used:
Test in all cases: biochemical
MAP4K5 = MAP4K5 (Homo sapiens, UniProt Q9Y4K4); design: species or system K562 (extract); replicate k of n = 2 (each experiment ID is one independent experiment; two experiment IDs per compound); details: read-out: KDapp
STK16 = STK16 (Homo sapiens, UniProt O75716)
NEK2 = molecular target: T1, NEK2 (Homo sapiens, UniProt P51955)
T1 sequence (P51955 1-445): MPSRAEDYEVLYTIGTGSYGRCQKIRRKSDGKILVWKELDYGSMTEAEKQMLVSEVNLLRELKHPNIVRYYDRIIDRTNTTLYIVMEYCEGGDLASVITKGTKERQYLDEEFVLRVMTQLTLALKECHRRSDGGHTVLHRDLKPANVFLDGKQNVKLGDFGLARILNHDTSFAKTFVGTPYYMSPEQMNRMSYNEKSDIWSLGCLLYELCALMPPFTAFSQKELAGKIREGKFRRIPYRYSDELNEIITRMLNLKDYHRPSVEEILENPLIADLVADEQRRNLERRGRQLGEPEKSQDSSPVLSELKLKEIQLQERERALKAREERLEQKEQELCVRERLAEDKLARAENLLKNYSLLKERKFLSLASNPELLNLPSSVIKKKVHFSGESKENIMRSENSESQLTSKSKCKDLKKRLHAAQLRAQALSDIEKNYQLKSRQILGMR

NEK9 = molecular target: T2, NEK9 (Homo sapiens, UniProt Q8TD19)
T2 sequence (Q8TD19 1-979): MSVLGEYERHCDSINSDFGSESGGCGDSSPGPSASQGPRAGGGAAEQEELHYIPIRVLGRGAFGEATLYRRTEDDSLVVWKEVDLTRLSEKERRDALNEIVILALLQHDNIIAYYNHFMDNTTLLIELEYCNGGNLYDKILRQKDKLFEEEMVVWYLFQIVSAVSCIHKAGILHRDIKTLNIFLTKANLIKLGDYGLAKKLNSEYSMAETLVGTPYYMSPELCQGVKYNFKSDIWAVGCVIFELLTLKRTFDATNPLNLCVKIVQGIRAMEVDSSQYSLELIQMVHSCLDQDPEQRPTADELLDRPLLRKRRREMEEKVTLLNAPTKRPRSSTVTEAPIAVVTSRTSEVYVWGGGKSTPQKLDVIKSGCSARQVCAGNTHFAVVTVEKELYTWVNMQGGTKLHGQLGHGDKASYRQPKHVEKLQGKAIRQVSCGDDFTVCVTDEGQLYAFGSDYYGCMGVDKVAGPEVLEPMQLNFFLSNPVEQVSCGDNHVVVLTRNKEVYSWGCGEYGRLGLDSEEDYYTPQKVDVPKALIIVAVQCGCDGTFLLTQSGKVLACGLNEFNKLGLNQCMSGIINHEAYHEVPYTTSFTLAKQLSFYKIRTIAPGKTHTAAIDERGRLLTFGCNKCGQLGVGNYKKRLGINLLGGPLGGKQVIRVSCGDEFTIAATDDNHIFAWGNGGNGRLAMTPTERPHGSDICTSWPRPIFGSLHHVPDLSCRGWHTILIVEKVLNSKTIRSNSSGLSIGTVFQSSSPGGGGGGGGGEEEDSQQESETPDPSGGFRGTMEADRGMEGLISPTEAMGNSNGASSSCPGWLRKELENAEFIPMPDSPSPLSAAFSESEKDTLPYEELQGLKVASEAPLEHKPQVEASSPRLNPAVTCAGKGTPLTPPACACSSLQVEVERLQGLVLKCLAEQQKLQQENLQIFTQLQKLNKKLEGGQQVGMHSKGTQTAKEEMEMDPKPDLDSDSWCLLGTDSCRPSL

CDK5 = CDK5 (Homo sapiens, UniProt Q00535)
YES1 = YES1 (Homo sapiens, UniProt P07947)
PRKCB = PRKCB (Homo sapiens, UniProt P05771)
PIM2 = PIM2 (Homo sapiens, UniProt Q9P1W9)
TEC = molecular target: T3, TEC (Homo sapiens, UniProt P42680)
T3 sequence (P42680 1-631): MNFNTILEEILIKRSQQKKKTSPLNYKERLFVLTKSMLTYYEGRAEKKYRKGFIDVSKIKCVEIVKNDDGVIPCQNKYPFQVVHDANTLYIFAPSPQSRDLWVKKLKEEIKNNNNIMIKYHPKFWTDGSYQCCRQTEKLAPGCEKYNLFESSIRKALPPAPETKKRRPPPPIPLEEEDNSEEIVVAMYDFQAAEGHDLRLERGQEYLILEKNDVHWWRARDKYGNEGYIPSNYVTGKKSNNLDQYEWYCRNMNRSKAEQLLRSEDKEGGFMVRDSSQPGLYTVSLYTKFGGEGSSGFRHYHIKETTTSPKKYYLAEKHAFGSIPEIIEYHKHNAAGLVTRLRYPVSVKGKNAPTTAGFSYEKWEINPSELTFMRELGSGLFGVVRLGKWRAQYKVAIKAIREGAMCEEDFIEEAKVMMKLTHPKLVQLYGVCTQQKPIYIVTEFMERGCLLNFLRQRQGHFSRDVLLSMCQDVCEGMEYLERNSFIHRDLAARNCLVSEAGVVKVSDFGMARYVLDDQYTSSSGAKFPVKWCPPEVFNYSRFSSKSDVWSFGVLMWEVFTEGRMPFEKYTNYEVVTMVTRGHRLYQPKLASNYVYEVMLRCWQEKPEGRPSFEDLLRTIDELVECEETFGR

PTK2B = PTK2B (Homo sapiens, UniProt Q14289)
Sequence of PTK2B (Q14289 whole entry): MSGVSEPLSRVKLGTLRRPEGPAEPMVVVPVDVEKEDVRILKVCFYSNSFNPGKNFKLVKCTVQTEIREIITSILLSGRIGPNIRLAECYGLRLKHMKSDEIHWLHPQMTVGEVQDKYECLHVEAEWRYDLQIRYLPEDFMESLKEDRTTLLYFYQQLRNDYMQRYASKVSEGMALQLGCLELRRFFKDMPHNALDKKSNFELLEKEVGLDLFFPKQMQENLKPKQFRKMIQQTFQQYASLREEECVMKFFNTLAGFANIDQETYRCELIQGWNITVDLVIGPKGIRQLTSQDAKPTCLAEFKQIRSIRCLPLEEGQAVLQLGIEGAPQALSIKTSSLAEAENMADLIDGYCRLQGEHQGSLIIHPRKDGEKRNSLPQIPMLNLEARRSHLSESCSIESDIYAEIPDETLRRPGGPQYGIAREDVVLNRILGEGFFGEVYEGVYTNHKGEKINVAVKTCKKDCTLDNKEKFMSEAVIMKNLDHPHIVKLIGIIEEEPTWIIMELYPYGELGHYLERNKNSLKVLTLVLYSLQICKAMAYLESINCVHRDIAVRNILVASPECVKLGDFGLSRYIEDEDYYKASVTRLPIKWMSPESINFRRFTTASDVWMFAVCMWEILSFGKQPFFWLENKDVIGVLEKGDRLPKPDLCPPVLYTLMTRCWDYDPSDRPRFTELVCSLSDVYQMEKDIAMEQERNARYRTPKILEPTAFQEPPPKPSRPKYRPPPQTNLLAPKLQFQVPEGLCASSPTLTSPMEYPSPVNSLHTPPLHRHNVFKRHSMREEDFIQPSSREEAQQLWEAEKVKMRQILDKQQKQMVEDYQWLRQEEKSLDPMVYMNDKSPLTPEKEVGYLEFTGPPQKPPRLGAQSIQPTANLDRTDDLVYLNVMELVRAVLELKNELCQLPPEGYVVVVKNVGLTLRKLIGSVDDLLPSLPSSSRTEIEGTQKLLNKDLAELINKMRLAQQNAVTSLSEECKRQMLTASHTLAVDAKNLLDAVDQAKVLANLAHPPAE

Sequence of PRKCB (P05771 whole entry): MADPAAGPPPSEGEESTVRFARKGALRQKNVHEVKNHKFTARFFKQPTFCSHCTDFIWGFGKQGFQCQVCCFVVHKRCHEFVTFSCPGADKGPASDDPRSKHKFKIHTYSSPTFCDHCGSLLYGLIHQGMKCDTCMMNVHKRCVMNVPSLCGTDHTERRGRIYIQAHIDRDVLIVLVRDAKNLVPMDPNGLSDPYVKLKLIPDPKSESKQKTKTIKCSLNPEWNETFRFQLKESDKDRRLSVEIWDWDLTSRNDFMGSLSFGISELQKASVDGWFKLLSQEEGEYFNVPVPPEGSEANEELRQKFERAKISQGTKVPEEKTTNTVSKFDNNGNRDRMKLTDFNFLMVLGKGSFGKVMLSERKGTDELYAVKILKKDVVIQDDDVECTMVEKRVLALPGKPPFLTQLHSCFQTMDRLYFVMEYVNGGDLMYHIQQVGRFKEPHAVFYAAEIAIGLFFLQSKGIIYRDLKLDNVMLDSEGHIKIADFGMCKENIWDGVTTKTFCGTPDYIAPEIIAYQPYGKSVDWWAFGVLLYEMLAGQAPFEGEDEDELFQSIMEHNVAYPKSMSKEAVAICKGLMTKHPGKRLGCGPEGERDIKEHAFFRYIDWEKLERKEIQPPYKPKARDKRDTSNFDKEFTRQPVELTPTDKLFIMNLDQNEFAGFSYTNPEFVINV
Sequence of PIM2 (Q9P1W9 whole entry): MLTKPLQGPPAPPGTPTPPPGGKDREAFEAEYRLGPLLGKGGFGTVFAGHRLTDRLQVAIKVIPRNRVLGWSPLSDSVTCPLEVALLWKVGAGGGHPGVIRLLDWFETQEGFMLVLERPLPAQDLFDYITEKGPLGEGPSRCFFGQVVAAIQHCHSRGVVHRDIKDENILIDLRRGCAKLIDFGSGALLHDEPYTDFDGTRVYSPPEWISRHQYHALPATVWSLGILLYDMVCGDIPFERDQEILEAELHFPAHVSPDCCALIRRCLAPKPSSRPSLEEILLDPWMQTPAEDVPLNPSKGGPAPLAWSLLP
Sequence of STK16 (O75716 whole entry): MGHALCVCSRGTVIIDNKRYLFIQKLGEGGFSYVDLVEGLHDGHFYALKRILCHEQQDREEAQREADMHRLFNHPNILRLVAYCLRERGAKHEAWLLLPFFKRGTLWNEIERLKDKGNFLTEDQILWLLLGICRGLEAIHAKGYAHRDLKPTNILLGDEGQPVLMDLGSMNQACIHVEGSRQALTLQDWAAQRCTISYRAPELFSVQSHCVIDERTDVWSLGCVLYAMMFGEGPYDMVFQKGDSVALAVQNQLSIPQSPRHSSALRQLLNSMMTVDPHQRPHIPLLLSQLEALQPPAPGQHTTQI
Sequence of YES1 (P07947 whole entry): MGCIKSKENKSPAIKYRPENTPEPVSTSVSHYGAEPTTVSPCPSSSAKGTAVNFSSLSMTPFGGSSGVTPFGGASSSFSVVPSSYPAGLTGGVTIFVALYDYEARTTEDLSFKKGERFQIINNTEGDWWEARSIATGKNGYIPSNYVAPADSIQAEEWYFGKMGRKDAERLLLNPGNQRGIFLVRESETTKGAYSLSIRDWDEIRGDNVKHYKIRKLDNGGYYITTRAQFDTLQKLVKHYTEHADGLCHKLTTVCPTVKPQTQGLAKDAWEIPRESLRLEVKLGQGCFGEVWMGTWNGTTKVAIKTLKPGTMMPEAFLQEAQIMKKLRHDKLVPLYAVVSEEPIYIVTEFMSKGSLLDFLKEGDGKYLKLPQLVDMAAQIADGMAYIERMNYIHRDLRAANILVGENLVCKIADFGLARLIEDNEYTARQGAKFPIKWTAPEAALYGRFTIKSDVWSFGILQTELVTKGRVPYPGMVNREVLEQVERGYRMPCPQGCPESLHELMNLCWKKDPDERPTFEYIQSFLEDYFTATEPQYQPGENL
Sequence of CDK5 (Q00535 whole entry): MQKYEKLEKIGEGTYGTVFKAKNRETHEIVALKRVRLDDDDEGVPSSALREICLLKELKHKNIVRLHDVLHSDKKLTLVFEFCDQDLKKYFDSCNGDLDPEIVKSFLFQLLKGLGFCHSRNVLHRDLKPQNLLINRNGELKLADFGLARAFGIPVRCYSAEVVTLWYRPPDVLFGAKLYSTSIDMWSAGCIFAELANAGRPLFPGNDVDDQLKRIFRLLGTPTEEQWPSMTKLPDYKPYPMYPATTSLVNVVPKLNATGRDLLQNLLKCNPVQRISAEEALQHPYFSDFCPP
Sequence of MAP4K5 (Q9Y4K4 whole entry): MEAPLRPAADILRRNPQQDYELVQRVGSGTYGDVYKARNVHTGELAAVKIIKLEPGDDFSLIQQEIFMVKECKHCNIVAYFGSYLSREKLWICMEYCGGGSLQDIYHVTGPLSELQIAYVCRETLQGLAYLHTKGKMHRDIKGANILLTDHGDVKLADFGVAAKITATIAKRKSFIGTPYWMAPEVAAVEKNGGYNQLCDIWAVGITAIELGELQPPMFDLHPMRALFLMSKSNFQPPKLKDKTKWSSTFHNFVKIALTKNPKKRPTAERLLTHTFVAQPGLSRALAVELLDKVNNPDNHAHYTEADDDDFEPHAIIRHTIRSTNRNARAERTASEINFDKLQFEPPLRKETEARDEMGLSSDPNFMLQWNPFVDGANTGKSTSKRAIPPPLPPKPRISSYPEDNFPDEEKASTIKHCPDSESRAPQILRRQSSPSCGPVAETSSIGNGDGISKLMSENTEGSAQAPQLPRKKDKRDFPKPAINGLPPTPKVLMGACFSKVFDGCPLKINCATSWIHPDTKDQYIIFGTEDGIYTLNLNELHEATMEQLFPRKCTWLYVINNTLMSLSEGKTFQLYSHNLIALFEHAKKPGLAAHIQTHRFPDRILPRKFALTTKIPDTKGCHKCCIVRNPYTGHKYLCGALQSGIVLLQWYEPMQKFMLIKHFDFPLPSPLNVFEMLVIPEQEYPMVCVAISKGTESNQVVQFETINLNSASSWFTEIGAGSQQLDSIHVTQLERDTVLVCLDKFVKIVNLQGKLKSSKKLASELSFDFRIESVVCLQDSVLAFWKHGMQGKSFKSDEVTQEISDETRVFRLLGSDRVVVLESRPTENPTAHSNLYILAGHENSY

Structure (SMILES) | Kd (MAP4K5) | IC50 (STK16) | IC50 (NEK2) | IC50 (NEK9) | IC50 (CDK5) | IC50 (YES1) | IC50 (PRKCB) | IC50 (PIM2) | IC50 (TEC) | IC50 (PTK2B)
CN1CCN(c2ccc(Nc3ncc(C#N)c(Nc4ccccc4C(N)=O)n3)cc2)CC1.Cl [TCMDC-134116] | 185 nM and 192 nM | 270 nM and 380 nM | 570 nM and 250 nM | 770 nM and 580 nM | 67 nM and 110 nM | 120 nM and 150 nM | 870 nM | 4800 nM | 460 nM and 490 nM | 77 nM and 97 nM
Cl.NCC1(c2nc(-c3ccc(Cl)c(O)c3)c(-c3ccncc3)[nH]2)CCCCC1 [TCMDC-141154] | 3310 nM | > 20000 nM | > 20000 nM | > 20000 nM | > 20000 nM | 4400 nM and 7700 nM | 12000 nM and 5900 nM | > 20000 nM | > 20000 nM | > 20000 nM
CN(C)CC(O)COc1ccc(Nc2ncc([N+](=O)[O-])c(Nc3ccccc3O)n2)cc1.O=C(O)C(F)(F)F (stereo not drawn) [TCMDC-141399] | 2850 nM | 1100 nM | 6500 nM and 4200 nM | > 20000 nM | > 20000 nM | > 20000 nM | > 20000 nM | > 20000 nM | > 20000 nM | 350 nM and 480 nM
